Experimental data as given in paper PMC7835349 (Communications Biology, 2021).
“And” between values parts separate entries of the source, which are not always exact repeats. Equal values may be shown once.

Key:
[1] = Formulation dependent plasma and tumour pharmacokinetics of AZD4320 (Fig S2b); assay type: in vivo; conditions: mouse, 5 mg/kg IV, 30% HPbCD
Method: Supplementary Figure 2. Formulation dependent efficacy of AZD4320 (a) A single 5mg/kg IV bolus dose of AZD4320 formulated in 30% hydroxypropyl-β-cyclodextrin (HP-β-CD) […]
(§1) Data in the graphs are represented as mean tumor volume
± SEM (n=5). Arrow indicates dosing schedule.(b) A pharmacokinetic profile from both […]
explained by differential profiles in the plasma. The plasma profiles are similar. The efficacy is consistent with the concentration profiles observed in the tumour (n=4, Tween formulation, yellow, n=8 HP-β-CD formulation, purple). Lines connect the mean values.
(§2) (1 picture or pasted object on this page, not shown here)

[2] = Plasma protein binding (unbound fraction); assay type: in vitro ADME; conditions: pre-clinical species and human, across pre-clinical species and man
tumours = experiment: Formulation dependent efficacy of AZD4320 (Fig S2a); assay type: in vivo; conditions: single 5mg/kg IV bolus
Method: Supplementary Figure 2. Formulation dependent efficacy of AZD4320 (a) A single 5mg/kg
IV bolus dose of AZD4320 formulated in 30% hydroxypropyl-β-cyclodextrin (HP-β-CD)
as §1
± SEM (n=5). […]
as §2

cleaved caspase-3 (CC3) = experiment: Cleaved caspase-3 immunohistochemistry of RS4;11 tumours; assay type: in vivo, C.B-17 SCID mouse; conditions: RS4;11 tumours, 1, 5 and 24 h post dose
Method: Formalin fixed paraffin embedded (FFPE) slides were cut on a rotary microtome at 4 µm and placed onto Superfrost plus slides (VWR) dried thoroughly, and then baked for 20 min in an oven at 60 °C. Slides were then stained on a Ventana Discovery XT using a CCI standard protocol and DAB Map Kit (Ventana cat # 760-124). The slides were then incubated in the primary CC3 (Cell Signaling Technology) antibody at 100µL per slide of a 1:50 dilution for 1 h. The secondary antibody was a biotinylated goat anti-rabbit from Vector Labs (PK-6101) made according to manufacturer’s instructions and put in an auto-dispense container. The slides were incubated in the secondary antibody for 30 min and then counterstained with Hematoxylin (Ventana 760-2021) for 4 min and blued with bluing reagent (Ventana 760-2037) for 4 min. After the Ventana run was complete, slides were taken off the machine, rinsed in reaction buffer, dehydrated, cleared and mounted with permount. Digital slide images were acquired at 20 x magnification using the Aperio Scanscope XT (Vista, CA).

Aqueous solubility = assay type: physicochemical; conditions: aqueous buffers at physiological pH

Compound `CN(CCO)CCC(CSc1ccccc1)Nc1ccc(S(=O)(=O)NC(=O)c2ccc(N3CCC(C(O)c4ccccc4-c4ccc(Cl)cc4)CC3)cc2)cc1S(=O)(=O)C(F)(F)F` (stereo not shown) [AZD4320] has a concentration at 6 h ([1]; C.B-17 SCID, plasma, iv, 5 mg/kg, 6 h, study CIV-12-112) of 65 nM, a concentration at 0.5 h ([1]; C.B-17 SCID, tumour, iv, 5 mg/kg, Tumor, 0.5 h, study CIV-11-055) of 815 nM and a concentration at 1 h ([1]; C.B-17 SCID, tumour, iv, 5 mg/kg, Tumor, 1 h, study CIV-11-055) of 473 nM. It also gave a concentration at 6 h ([1]; C.B-17 SCID, tumour, iv, 5 mg/kg, Tumor, 6 h, study CIV-11-055) of 312 nM, a concentration at 6 h ([1]; C.B-17 SCID, tumour, iv, 5 mg/kg, Tumor, 6 h, study CIV-12-112) of 436 nM and a concentration at 24 h ([1]; C.B-17 SCID, tumour, iv, 5 mg/kg, Tumor, 24 h, study CIV-11-055) of 275 nM. For the same compound, the concentration at 24 h ([1]; C.B-17 SCID, tumour, iv, 5 mg/kg, Tumor, 24 h, study CIV-12-112) was 165 nM, the Concentration ([1]; Plasma, 6 h, study CIV-12-112) was 114 nM and 108 nM and 59 nM and the Concentration ([1]; Tumor, 0.5 h, study CIV-11-055) was 750 nM and 857 nM and 503 nM. The Concentration ([1]; Tumor, 1 h, study CIV-11-055) was 394 nM and 626 nM and 461 nM, the Concentration ([1]; Tumor, 6 h, study CIV-11-055) was 253 nM and 344 nM and 313 nM and the Concentration ([1]; Tumor, 6 h, study CIV-12-112) was 568 nM and 289 nM and 439 nM. The Concentration ([1]; Tumor, 24 h, study CIV-11-055) was 196 nM and 164 nM and 174 nM, the Concentration ([1]; Tumor, 24 h, study CIV-12-112) was 172 nM and 93 nM and 130 nM and the fraction unbound [2] was less than 3e-05. For the same compound, the “efficacy” value (tumours; formulated in 0.5% Tween 80) was “no efficacy”, the “efficacy” value (tumours; formulated in 30% hydroxypropyl-β-cyclodextrin) was “complete regression of the tumours” and the “cleaved caspase-3 induction by IHC” value (cleaved caspase-3 (CC3)) was “robust cleaved caspase induction”. The solubility (Aqueous solubility) was less than 1 µg/mL.
